Experimental data as given in patent US8501750B2, “Heterocyclic compound and use thereof” (Takeda Pharmaceutical Company Limited, priority 2007, dated 2013).
Where a name gives a salt, the structure may show the parent alone. Read-outs that look alike come from different tables or passages of the source.

Assays:
[1] = target: AT1 receptor (Homo sapiens (Human), UniProt P30556); assay: AT1 receptor binding inhibitory action
[2] = target: PPARγ (Homo sapiens (Human), UniProt P37231); assay: PPARγ activating action (luciferase reporter in PPARγ:RXRα:4ERPP/CHO-K1 cells); format: cell-based; details: CHO-K1, 24 h, read-out: PPARγ activating action (activation % (1 μM))
Experimental: Then the medium was removed from the 96-well half area white plate, 45 μl of Ham's F12 medium containing 0.1% fatty acid-free bovine serum albumin (BSA) and 5 μl of test compound were added, and the cells were cultured in a CO2 gas incubator at 37° C. for 1 day. The medium was removed and 20 μl of PicaGene 7.5 [manufactured by Dainippon Ink and Chemicals Corporation, Japan] diluted 2-fold with HBSS (HANKS' BALANCED SALT SOLUTION) [manufactured by BIO WHITTAKER, USA] was added. After stirring, the luciferase activity was determined using 1420 ARVO Multilabel Counter [manufactured by PerkinElmer, USA]. […] A CHO-K1 cell cultured in a 150 cm^2 cell culture flask [manufactured by Corning Costar Corporation, USA] containing Ham's F12 medium [manufactured by INVITROGEN, USA] supplemented with 10% fetal bovine serum [manufactured by INVITROGEN, USA] was scraped by treating with 0.5 g/L trypsin-0.2 g/L EDTA (ethylenediaminetetraacetic acid) [manufactured by Life Technologies, Inc., USA], and then the cell was washed with PBS (Phosphate-buffered saline) [manufactured by INVITROGEN, USA], centrifuged (1000 rpm, 5 minutes) and suspended in PBS. Subsequently, DNA was introduced into the cell under the conditions shown below using GENE PULSER [manufactured by Bio-Rad Laboratories, USA]. […] Subsequently, the cell was transferred into a F12 medium containing 10% fetal bovine serum and cultured for 24 hours, and then the cell was scraped again and centrifuged, and then suspended in Ham's F12 medium containing 10% fetal bovine serum supplemented with 500 μg/ml of Geneticin [manufactured by INVITROGEN, USA] and 250 μg/ml of Zeocin [manufactured by INVITROGEN, USA]. The obtained suspension was diluted to the density of 10^4 cells/ml and inoculated in a 96-well plate [manufactured by Corning Costar Corporation, USA], which was cultured in a CO2 gas incubator at 37° C., whereby obtaining a Geneticin- and Zeocin-resistant transformant.

[3] = test compound 1 μM, luciferase activity relative to control compound X (1 μM) = 100%, non-administration group = 0%

AT1 receptor, sequence (P30556 whole entry): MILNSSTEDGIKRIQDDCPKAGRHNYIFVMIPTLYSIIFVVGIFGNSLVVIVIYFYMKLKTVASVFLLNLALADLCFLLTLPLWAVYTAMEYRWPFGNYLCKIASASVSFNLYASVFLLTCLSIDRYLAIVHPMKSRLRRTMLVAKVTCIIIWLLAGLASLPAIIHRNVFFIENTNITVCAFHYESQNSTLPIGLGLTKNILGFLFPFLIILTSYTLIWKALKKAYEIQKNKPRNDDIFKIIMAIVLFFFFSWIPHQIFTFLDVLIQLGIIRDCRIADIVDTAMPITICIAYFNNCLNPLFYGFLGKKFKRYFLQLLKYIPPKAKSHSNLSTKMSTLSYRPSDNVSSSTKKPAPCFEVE
PPARγ, sequence (P37231 29-505): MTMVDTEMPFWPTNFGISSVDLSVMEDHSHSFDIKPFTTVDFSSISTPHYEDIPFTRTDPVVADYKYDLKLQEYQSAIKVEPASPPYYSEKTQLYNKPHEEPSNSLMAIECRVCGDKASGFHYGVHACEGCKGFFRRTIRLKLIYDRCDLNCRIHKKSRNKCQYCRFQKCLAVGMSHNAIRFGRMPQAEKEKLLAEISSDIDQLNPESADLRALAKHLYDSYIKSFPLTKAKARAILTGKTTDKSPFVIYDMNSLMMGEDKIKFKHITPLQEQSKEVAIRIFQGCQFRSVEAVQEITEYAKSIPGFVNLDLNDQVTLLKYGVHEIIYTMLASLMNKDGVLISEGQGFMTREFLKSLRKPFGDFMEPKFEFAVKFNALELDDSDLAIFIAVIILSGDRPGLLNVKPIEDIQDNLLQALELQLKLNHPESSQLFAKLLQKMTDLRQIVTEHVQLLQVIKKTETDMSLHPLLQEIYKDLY
PPARγ, sequence (P19793 whole entry partner): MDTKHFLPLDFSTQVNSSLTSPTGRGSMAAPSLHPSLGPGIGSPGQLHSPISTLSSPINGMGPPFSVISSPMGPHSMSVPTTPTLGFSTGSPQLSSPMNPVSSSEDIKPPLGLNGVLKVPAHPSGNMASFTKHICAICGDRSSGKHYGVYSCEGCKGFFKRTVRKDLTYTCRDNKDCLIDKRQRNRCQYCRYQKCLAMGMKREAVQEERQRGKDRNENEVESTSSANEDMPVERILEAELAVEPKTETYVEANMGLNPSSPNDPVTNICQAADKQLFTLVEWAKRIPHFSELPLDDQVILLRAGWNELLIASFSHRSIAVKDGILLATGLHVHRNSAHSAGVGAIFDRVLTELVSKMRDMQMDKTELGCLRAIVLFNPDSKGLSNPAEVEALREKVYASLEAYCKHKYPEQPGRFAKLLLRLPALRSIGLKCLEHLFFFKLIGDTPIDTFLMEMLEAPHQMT

Row | IC50 [1] [nM] | activation at 1 µM [2, 3] [%] | Structure (SMILES) | activation at 1 µM [2] [%]
1 | 1.6 | 27 | O=c1[nH]c(-c2ccccc2-c2ccc(Cn3c(=O)n(CCc4ccc(Cl)cc4)c(=O)c4cc(CC(F)(F)F)sc43)cc2)no1 [Ex. 58, 3-[2-(4-chlorophenyl)ethyl]-1-{[2′-(5-oxo-4,5-dihydro-1,2,4-oxadiazol-3-yl)biphenyl-4-yl]methyl}-6-(2,2,2-trifluoroethyl)thieno[2,3-d]pyrimidine-2,4(1H,3H)-dione] | –
2 | 1.2 | 58 | Cc1ccc(CCn2c(=O)c3cc(CC(F)(F)F)sc3n(Cc3ccc(-c4ccccc4-c4noc(=O)[nH]4)cc3)c2=O)cc1 [Ex. 59, 3-[2-(4-methylphenyl)ethyl]-1-{[2′-(5-oxo-4,5-dihydro-1,2,4-oxadiazol-3-yl)biphenyl-4-yl]methyl}-6-(2,2,2-trifluoroethyl)thieno[2,3-d]pyrimidine-2,4(1H,3H)-dione] | –
3 | 1 | 42 | O=c1[nH]c(-c2ccccc2-c2ccc(Cn3c(=O)n(CCc4cccc(F)c4)c(=O)c4cc(CC(F)(F)F)sc43)cc2)no1 [Ex. 60, 3-[2-(3-fluorophenyl)ethyl]-1-{[2′-(5-oxo-4,5-dihydro-1,2,4-oxadiazol-3-yl)biphenyl-4-yl]methyl}-6-(2,2,2-trifluoroethyl)thieno[2,3-d]pyrimidine-2,4(1H,3H)-dione] | –
4 | 1.1 | 31 | O=C(Cn1c(=O)c2cc(C3CC3)sc2n(Cc2ccc(-c3ccccc3-c3noc(=O)[nH]3)cc2)c1=O)c1ccc(F)cc1 [Ex. 63, 6-cyclopropyl-3-[2-(4-fluorophenyl)-2-oxoethyl]-1-{[2′-(5-oxo-4,5-dihydro-1,2,4-oxadiazol-3-yl)biphenyl-4-yl]methyl}thieno[2,3-d]pyrimidine-2,4(1H,3H)-dione] | –
5 | 1.5 | 35 | CCc1cc2c(=O)n(CC(=O)c3ccc(OC)cc3F)c(=O)n(Cc3ccc(-c4ccccc4-c4noc(=O)[nH]4)cc3)c2s1 [Ex. 73, 6-ethyl-3-[2-(2-fluoro-4-methoxyphenyl)-2-oxoethyl]-1-{[2′-(5-oxo-4,5-dihydro-1,2,4-oxadiazol-3-yl)biphenyl-4-yl]methyl}thieno[2,3-d]pyrimidine-2,4(1H,3H)-dione] | –
6 | 1 | 27 | CCc1cc2c(=O)n(CC(=O)c3ccc(OC)cc3C)c(=O)n(Cc3ccc(-c4ccccc4-c4noc(=O)[nH]4)cc3)c2s1 [Ex. 76, 6-ethyl-3-[2-(4-methoxy-2-methylphenyl)-2-oxoethyl]-1-{[2′-(5-oxo-4,5-dihydro-1,2,4-oxadiazol-3-yl)biphenyl-4-yl]methyl}thieno[2,3-d]pyrimidine-2,4(1H,3H)-dione] | –
7 | 0.77 | 37 | CCc1cc2c(=O)n(CC(=O)c3ccc(OC)cc3)c(=O)n(Cc3ccc(-c4ccccc4-c4noc(=O)[nH]4)cc3F)c2s1 [Ex. 83, 6-ethyl-1-{[3-fluoro-2′-(5-oxo-4,5-dihydro-1,2,4-oxadiazol-3-yl)biphenyl-4-yl]methyl}-3-[2-(4-methoxyphenyl)-2-oxoethyl]thieno[2,3-d]pyrimidine-2,4(1H,3H)-dione] | –

Row | Structure (SMILES) | IC50 [1] [nM] | activation at 1 µM [2, 3] [%] | activation at 1 µM [2] [%]
8 | COc1ccccc1C(=O)Cn1c(=O)c2cc(C3CC3)sc2n(Cc2ccc(-c3ccccc3-c3noc(O)n3)cc2)c1=O [Ex. 99, 6-cyclopropyl-3-[2-(2-methoxyphenyl)-2-oxoethyl]-1-{[2′-(5-oxo-4,5-dihydro-1,2,4-oxadiazol-3-yl)biphenyl-4-yl]methyl}thieno[2,3-d]pyrimidine-2,4(1H,3H)-dione potassium salt] | 1.2 | – | 56
9 | COc1ccc(C(=O)Cn2c(=O)c3cc(C4CC4)sc3n(Cc3ccc(-c4ccccc4-c4noc(O)n4)cc3F)c2=O)cc1 [Ex. 105, 6-cyclopropyl-1-{[3-fluoro-2′-(5-oxo-4,5-dihydro-1,2,4-oxadiazol-3-yl)biphenyl-4-yl]methyl}-3-[2-(4-methoxyphenyl)-2-oxoethyl]thieno[2,3-d]pyrimidine-2,4(1H,3H)-dione potassium salt] | 1 | – | 34
